Columns and labels:
Botrytis cinerea [1] = experiment: in vivo volatile bioassay using green table grape
Experimental: In order to assess the in vivo activity of volatile antimicrobial compounds, a volatile bioassay is developed using green table grape. Fruit are placed individually inside a 20 mL scintillation vial, with the stem wound facing upwards. The fresh stem wound is inoculated with 10 μL of 1×10^6 per mL Botrytis cinerea spore suspension. Whatman filter paper (Cat. No. 1822-024) is placed inside duplicate vial caps. […] The acetone is permitted to evaporate for 5 minutes. The vials are then capped with the lids containing the fungicide, and placed for 14 days at 4° C. After storage, fruit are evaluated for incidence of disease and appearance of phytotoxicity.

Botrytis cinerea [2] = experiment: in vivo dose by time volatile bioassay using strawberry; conditions: for Incidence (%) / Severity (0 to 3): strawberries
Experimental: In order to assess the in vivo dose by time activity of volatile antimicrobial compounds, a volatile bioassay is developed using strawberry. Two fruit are placed inside a 240 mL jar, with the calyx facing downwards. […] Whatman filter paper (Cat. No. 1822-024) is placed inside duplicate jar lids. Compound A (benzoxaborole; FIG. 1) is diluted in acetone, and the appropriate amount of compound is added to the disks at two rates 0.008 or 0.125 mg. The acetone is permitted to evaporate for 5 minutes. The jars are capped with the lids containing the fungicide, and incubated with the volatile fungicide for 1, 3, 6, 24 or 72 hours. After incubation, lids containing the disk with Compound A are replaced with new lids without Compound A. All samples are maintained at 21° C. for 3 days, and then the lids are removed and maintained for an additional 48 hours, all at 90% relative humidity (R.H.). The fruit are evaluated for incidence and severity of disease and appearance of phytotoxicity.

Botrytis cinerea [3] = experiment: combination treatment with 1-MCP on white roses; type: in vivo; conditions: three day volatile treatment at 21° C.
Experimental: To evaluate a combination treatment of Compound A with 1-methylcyclopropene (1-MCP), an in vivo experiment is performed on white roses.
Five white roses are placed in an 800 mL jar containing 200 mL of a common commercial flower preservative. Three jars are then placed in a 117 L Rubbermaid storage box (Cat #2244). Two small fans are placed in opposite ends of the container to assist with the distribution of the two volatiles. A 500 parts per billion (ppb) volume per volume (v/v) 1-MCP treatment is applied (AgroFresh, Springhouse, Pa.) for 24 hours at 21° C. After the 1-MCP treatment is completed, the containers are vented, and Compound A powder is applied in a dose dependent manner to achieve a final headspace concentration of 0.2, 0.04, or 0.008 mg/L with a sublimation device (copper tube heated to 200° C. with fan flow at 0.5 L/min), with the end of the tube penetrating through a ½ inch side port in the container that is sealed immediately after the application. The flowers are incubated for three days at 21° C. After treatment, the flowers are evaluated for an additional seven days at 21° C. for disease incidence and severity of the flower petals.

OB1OCc2cc(F)ccc21 [Compound A]
Botrytis inhibition % (in vivo) (Botrytis cinerea [1]; 0.005 mg per disk, 14 days at 4° C.): 0% | Botrytis inhibition % (in vivo) (Botrytis cinerea [1]; 0.01 mg per disk, 14 days at 4° C.): 0% | Botrytis inhibition % (in vivo) (Botrytis cinerea [1]; 0.023 mg per disk, 14 days at 4° C.): 0% | Botrytis inhibition % (in vivo) (Botrytis cinerea [1]; 0.04 mg per disk, 14 days at 4° C.): 100% | Botrytis inhibition % (in vivo) (Botrytis cinerea [1]; 0.08 mg per disk, 14 days at 4° C.): 100% | Botrytis inhibition % (in vivo) (Botrytis cinerea [1]; 0.16 mg per disk, 14 days at 4° C.): 100% | Botrytis inhibition % (in vivo) (Botrytis cinerea [1]; 0.31 mg per disk, 14 days at 4° C.): 100% | Botrytis inhibition % (in vivo) (Botrytis cinerea [1]; 0.63 mg per disk, 14 days at 4° C.): 100% | Botrytis inhibition % (in vivo) (Botrytis cinerea [1]; 1.25 mg per disk, 14 days at 4° C.): 100% | lowest rate with 100% control of Botrytis cinerea (Botrytis cinerea [1]; 14 days at 4° C.): 0.04 mg/disk | appearance of phytotoxicity (Botrytis cinerea [1]; any of the rates evaluated (2.5 to 0.0024 mg/disk)): no evidence of phytotoxicity | Incidence (%) (Botrytis cinerea [2]; 0.008 mg/disk, Time 3 h): 0% | Severity (0 to 3) (Botrytis cinerea [2]; 0.008 mg/disk, Time 3 h): 0.0 | Incidence (%) (Botrytis cinerea [2]; 0.008 mg/disk, Time 6 h): 33% | Severity (0 to 3) (Botrytis cinerea [2]; 0.008 mg/disk, Time 6 h): 1.0 | Incidence (%) (Botrytis cinerea [2]; 0.008 mg/disk, Time 24 h): 67% | Severity (0 to 3) (Botrytis cinerea [2]; 0.008 mg/disk, Time 24 h): 2.3 | Incidence (%) (Botrytis cinerea [2]; 0.008 mg/disk, Time 72 h): 33% | Severity (0 to 3) (Botrytis cinerea [2]; 0.008 mg/disk, Time 72 h): 1.0 | Incidence (%) (Botrytis cinerea [2]; 0.125 mg/disk, Time 1 h): 67% | Severity (0 to 3) (Botrytis cinerea [2]; 0.125 mg/disk, Time 1 h): 2.3 | Incidence (%) (Botrytis cinerea [2]; 0.125 mg/disk, Time 3 h): 33% | Severity (0 to 3) (Botrytis cinerea [2]; 0.125 mg/disk, Time 3 h): 1.3 | Incidence (%) (Botrytis cinerea [2]; 0.125 mg/disk, Time 6 h): 0% | Severity (0 to 3) (Botrytis cinerea [2]; 0.125 mg/disk, Time 6 h): 0.0 | Incidence (%) (Botrytis cinerea [2]; 0.125 mg/disk, Time 24 h): 0% | Severity (0 to 3) (Botrytis cinerea [2]; 0.125 mg/disk, Time 24 h): 0.0 | Incidence (%) (Botrytis cinerea [2]; 0.125 mg/disk, Time 72 h): 0% | Severity (0 to 3) (Botrytis cinerea [2]; 0.125 mg/disk, Time 72 h): 0.0 | control of Botrytis cinerea (Botrytis cinerea [2]; strawberry, 0.125 mg/disk, after 6 hour exposure): 100% | appearance of phytotoxicity (Botrytis cinerea [2]; strawberry, 0.008 or 0.125 mg): no evidence of phytotoxicity | Incidence (%) (Botrytis cinerea [3]; 0.008 mg/L): 20.0% | Severity (0-4) (Botrytis cinerea [3]; 0.008 mg/L): 0.2 | Incidence (%) (Botrytis cinerea [3]; 0.04 mg/L): 20.0% | Severity (0-4) (Botrytis cinerea [3]; 0.04 mg/L): 0.03 | Incidence (%) (Botrytis cinerea [3]; 0.2 mg/L): 0.0% | Severity (0-4) (Botrytis cinerea [3]; 0.2 mg/L): 0.0

From US9426996B2, “Use of benzoxaboroles as volatile antimicrobial agents on meats, plants, or plant parts” (AgroFresh Inc., priority 2013, dated 2016)
